This is an account of results in ChEMBL document CHEMBL1129711, “Nonpeptide GPIIb/IIIa inhibitors. 10. Centrally constrained alpha-sulfonamides are potent inhibitors of platelet aggregation” (Bioorg Med Chem Lett, 1996).

In test [1] the target is T1, Integrin alpha-IIb/beta-3 (Homo sapiens, UniProt P05106+P08514). Briefly: Binding affinity against alpha IIb beta-3 integrin in the presence of L-736622. It counts as protein-complex assay.
Target sequence in this assay (P05106 27-788 limits assumed): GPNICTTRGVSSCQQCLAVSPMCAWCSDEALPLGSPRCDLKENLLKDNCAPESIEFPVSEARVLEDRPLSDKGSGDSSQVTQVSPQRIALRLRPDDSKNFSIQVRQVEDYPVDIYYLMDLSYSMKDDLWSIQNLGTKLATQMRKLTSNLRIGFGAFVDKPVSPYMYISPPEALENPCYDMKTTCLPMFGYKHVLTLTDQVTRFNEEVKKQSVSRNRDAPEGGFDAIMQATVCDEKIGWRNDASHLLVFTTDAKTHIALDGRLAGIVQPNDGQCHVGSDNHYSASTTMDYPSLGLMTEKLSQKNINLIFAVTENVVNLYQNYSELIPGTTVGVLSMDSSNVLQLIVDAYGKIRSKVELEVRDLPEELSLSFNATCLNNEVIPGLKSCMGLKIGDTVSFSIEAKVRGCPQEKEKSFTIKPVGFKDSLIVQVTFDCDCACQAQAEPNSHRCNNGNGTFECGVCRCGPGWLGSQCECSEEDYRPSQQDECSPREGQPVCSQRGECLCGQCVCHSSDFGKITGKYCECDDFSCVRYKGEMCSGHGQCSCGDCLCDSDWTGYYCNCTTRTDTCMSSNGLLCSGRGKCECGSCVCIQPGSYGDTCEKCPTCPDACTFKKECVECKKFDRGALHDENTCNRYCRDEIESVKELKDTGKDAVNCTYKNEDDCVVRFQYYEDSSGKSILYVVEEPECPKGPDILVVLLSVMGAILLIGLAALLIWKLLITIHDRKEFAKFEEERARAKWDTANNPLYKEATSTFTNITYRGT
Target sequence in this assay (P08514 32-887 limits assumed): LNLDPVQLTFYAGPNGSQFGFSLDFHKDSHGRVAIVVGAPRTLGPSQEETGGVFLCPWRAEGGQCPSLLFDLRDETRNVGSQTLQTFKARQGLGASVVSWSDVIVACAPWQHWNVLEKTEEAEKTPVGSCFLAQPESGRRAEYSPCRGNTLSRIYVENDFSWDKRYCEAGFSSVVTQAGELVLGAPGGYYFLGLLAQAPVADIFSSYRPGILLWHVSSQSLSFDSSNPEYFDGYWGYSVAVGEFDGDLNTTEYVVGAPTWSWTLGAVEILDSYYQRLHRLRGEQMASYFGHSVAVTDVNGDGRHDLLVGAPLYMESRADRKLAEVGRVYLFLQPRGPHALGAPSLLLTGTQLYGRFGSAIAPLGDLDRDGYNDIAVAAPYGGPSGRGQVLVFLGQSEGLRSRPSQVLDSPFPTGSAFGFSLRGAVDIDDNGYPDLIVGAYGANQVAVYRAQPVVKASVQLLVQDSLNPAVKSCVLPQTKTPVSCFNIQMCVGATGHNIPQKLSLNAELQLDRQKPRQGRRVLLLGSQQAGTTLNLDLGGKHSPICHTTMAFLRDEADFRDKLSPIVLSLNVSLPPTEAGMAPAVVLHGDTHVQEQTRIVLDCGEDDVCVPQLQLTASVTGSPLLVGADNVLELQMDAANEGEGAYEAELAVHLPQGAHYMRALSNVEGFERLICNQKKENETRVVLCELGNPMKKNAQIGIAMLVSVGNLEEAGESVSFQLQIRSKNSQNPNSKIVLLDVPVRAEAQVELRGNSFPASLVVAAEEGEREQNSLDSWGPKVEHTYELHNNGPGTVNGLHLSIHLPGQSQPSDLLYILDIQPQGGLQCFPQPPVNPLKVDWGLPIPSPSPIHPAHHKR
Target sequence in this assay (P08514 891-1039 limits assumed): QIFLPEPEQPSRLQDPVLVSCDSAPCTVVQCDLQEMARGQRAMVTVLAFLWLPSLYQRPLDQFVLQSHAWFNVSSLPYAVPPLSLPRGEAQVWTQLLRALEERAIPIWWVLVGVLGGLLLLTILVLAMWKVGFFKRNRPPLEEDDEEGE
Test [2] addresses T1, Integrin alpha-IIb/beta-3. Briefly: Binding affinity against alpha IIb beta-3 integrin by [125I]-L-692,884 displacement. It counts as protein-complex assay.
For the next test, the species on record is Homo sapiens. As to the kind of experiment: In vitro inhibition of ADP-induced human platelet aggregation. It counts as functional.

Each structure is given as a SMILES string.

In the case of `CCCCCS(=O)(=O)N[C@@H](CNC(=O)c1ccc2c(c1)C(=O)N(CCC1CCNCC1)C2)C(=O)O`, the dissociation constant Kd in test [1] stood at 7.6 nM. Also, the ED50 in test [2] worked out at 0.88 nM. In the test listed under Homo sapiens, this compound yielded an IC50 of 9 nM.

Turning to `CCCCS(=O)(=O)N[C@@H](Cc1ccc(OCCCCC2CCNCC2)cc1)C(=O)O` [TIROFIBAN], the ED50 in test [2] amounted to 0.97 nM. In addition, the 50% inhibitory concentration (IC50) in the test listed under Homo sapiens came out at 11 nM.

In the case of `O=C(NC[C@H](NS(=O)(=O)c1cccs1)C(=O)O)c1ccc2c(c1)C(=O)N(CCC1CCNCC1)C2`, in test [1], the Kd was determined as 7.7 nM. Besides, the ED50 in test [2] was 0.53 nM. In the test filed under Homo sapiens, this compound registered an IC50 of 7 nM.

On to `CCOCCS(=O)(=O)N[C@@H](CNC(=O)c1ccc2c(c1)C(=O)N(CCC1CCNCC1)C2)C(=O)O`, for which, in test [1], the Kd was found to be 5.1 nM. Moreover, the ED50 in test [2] turned out to be 1.1 nM. Moreover, the IC50 in the test filed under Homo sapiens came out at 8 nM.

`O=C(NCc1ccccc1)N[C@@H](CNC(=O)c1ccc2c(c1)C(=O)N(CCC1CCNCC1)C2)C(=O)O`: in test [1], the dissociation constant (Kd) is 6 nM. In test [2], the ED50 turned out to be 1.2 nM. In the test filed under Homo sapiens, this compound had an IC50 of 10 nM.

Turning to `CCCCNS(=O)(=O)N[C@@H](CNC(=O)c1ccc2c(c1)C(=O)N(CCC1CCNCC1)C2)C(=O)O`, the equilibrium dissociation constant (Kd) in test [1] turned out to be 21 nM. This compound also gave an ED50 in test [2] of 2.8 nM. The compound also registered a half-inhibitory concentration (IC50) in the test filed under Homo sapiens of 19 nM.

Take `O=C(NC[C@H](NS(=O)(=O)c1ccccc1C(=O)O)C(=O)O)c1ccc2c(c1)C(=O)N(CCC1CCNCC1)C2`: the dissociation constant Kd in test [1] was 6.4 nM. Besides, in test [2], the ED50 came to 0.83 nM. The IC50 in the test listed under Homo sapiens was 15 nM.

With `CCCCS(=O)(=O)N[C@@H](CNC(=O)c1ccc2c(c1)C(=O)N(CCC1CCNCC1)C2)C(=O)O` (stereo in doubt; 13) [listing 1 of 2 here], the equilibrium dissociation constant (Kd) in test [1] is 4.4 nM.

Take `O=C(O)c1ccc(S(=O)(=O)N[C@@H](CNC(=O)c2ccc3c(c2)C(=O)N(CCC2CCNCC2)C3)C(=O)O)cc1`: in test [1], the dissociation constant Kd worked out at 15 nM. In test [2], this compound registered an ED50 of 2 nM. In addition, in the test filed under Homo sapiens, it took 7 nM to reach half-maximal inhibition (IC50).

On to `O=C(NC[C@H](NS(=O)(=O)c1cccnc1)C(=O)O)c1ccc2c(c1)C(=O)N(CCC1CCNCC1)C2`, for which the dissociation constant (Kd) in test [1] was determined as 3.6 nM. Besides, the ED50 in test [2] is 0.38 nM. Further, in the test listed under Homo sapiens, the IC50 turned out to be 15 nM.

As for `O=C(NC[C@H](NS(=O)(=O)Cc1ccccc1)C(=O)O)c1ccc2c(c1)C(=O)N(CCC1CCNCC1)C2`, the Kd in test [1] is 12 nM. The compound further showed an ED50 in test [2] of 1.6 nM. Further, the IC50 in the test listed under Homo sapiens was determined as 4 nM.

Take `CCCCS(=O)(=O)N[C@@H](CNC(=O)c1ccc2c(c1)C(=O)N(CCC1CCNCC1)C2)C(=O)O` (stereo in doubt) [listing 1 of 2 here]: in test [2], the ED50 amounted to 5.5 nM.

Consider `O=C(NC[C@H](NS(=O)(=O)c1ccccc1)C(=O)O)c1ccc2c(c1)C(=O)N(CCC1CCNCC1)C2`, for which, in test [1], the Kd was 3.7 nM. The compound further yielded an ED50 in test [2] of 0.33 nM. The compound further registered an IC50 in the test filed under Homo sapiens of 8 nM.

For `CCCCS(=O)(=O)N[C@@H](CNC(=O)c1ccc2c(c1)C(=O)N(CCC1CCNCC1)C2)C(=O)O` (stereo in doubt; 13) [listing 2 of 2 here], the ED50 in test [2] turned out to be 1.3 nM.

Turning to `CCCCNC(=O)N[C@@H](CNC(=O)c1ccc2c(c1)C(=O)N(CCC1CCNCC1)C2)C(=O)O`, the Kd in test [1] was found to be 6.9 nM. The compound also displayed an ED50 in test [2] of 1.4 nM. In the test listed under Homo sapiens, this compound came in with an IC50 of 16 nM.

For `O=C(O)CCNC(=O)c1ccc2c(c1)C(=O)N(CCC1CCNCC1)C2`, in test [1], the Kd worked out at 100 nM.

For `CC(C)CS(=O)(=O)N[C@@H](CNC(=O)c1ccc2c(c1)C(=O)N(CCC1CCNCC1)C2)C(=O)O`, in test [1], the Kd stood at 7.5 nM. For the same compound, the ED50 in test [2] was determined as 1.2 nM. In addition, the IC50 in the test listed under Homo sapiens came to 9 nM.

For the compound `CCCCS(=O)(=O)N[C@@H](CNC(=O)c1ccc2c(c1)C(=O)N(CCC1CCNCC1)C2)C(=O)O` (stereo in doubt) [listing 2 of 2 here], the dissociation constant Kd in test [1] stood at 8.8 nM. This compound returned an IC50 in the test listed under Homo sapiens of 14 nM.

`CCCCCC(=O)N[C@@H](CNC(=O)c1ccc2c(c1)C(=O)N(CCC1CCNCC1)C2)C(=O)O`: the Kd in test [1] came out at 6.4 nM. In test [2], this compound showed an ED50 of 4.2 nM. In the test filed under Homo sapiens, this compound returned an IC50 of 13 nM.

As to `CS(=O)(=O)N[C@@H](CNC(=O)c1ccc2c(c1)C(=O)N(CCC1CCNCC1)C2)C(=O)O`, in test [1], the equilibrium dissociation constant (Kd) amounted to 7.4 nM. Also, in test [2], the ED50 amounted to 3.4 nM. In the test listed under Homo sapiens, this compound returned an IC50 of 14 nM.

A word on the Kd: it is the free concentration of one partner at which half of the binding sites on the other are occupied at equilibrium, for simple one-to-one binding. Usually IC50 stands for the concentration needed to halve the response being measured.
